Data as given in BigSolDB 2.1.

COc1cc(C=O)ccc1O
solubility (mole fraction) (in ethanol, 293.15 K): 0.0713
solubility (mole fraction) (in ethanol, 298.15 K): 0.0779
solubility (mole fraction) (in ethanol, 303.15 K): 0.0841
solubility (mole fraction) (in ethanol, 308.15 K): 0.0926
solubility (mole fraction) (in ethanol, 313.15 K): 0.105
solubility (mole fraction) (in ethanol, 318.15 K): 0.118
solubility (mole fraction) (in ethanol, 323.15 K): 0.141
solubility (mole fraction) (in water, 293.15 K): 0.00116
solubility (mole fraction) (in water, 298.15 K): 0.00141
solubility (mole fraction) (in water, 303.15 K): 0.00179
solubility (mole fraction) (in water, 308.15 K): 0.00202
solubility (mole fraction) (in water, 313.15 K): 0.00234
solubility (mole fraction) (in water, 318.15 K): 0.00267
solubility (mole fraction) (in water, 323.15 K): 0.00298
